For the assay, the target named is T1, human vasopressin V1b receptor (Homo sapiens, UniProt P47901).
T1 construct: expressed in transfected cells; host or cells: CHO-K1 (cell line hV1b_3H2_CHO), membrane preparation
T1 sequence (P47901 1-424): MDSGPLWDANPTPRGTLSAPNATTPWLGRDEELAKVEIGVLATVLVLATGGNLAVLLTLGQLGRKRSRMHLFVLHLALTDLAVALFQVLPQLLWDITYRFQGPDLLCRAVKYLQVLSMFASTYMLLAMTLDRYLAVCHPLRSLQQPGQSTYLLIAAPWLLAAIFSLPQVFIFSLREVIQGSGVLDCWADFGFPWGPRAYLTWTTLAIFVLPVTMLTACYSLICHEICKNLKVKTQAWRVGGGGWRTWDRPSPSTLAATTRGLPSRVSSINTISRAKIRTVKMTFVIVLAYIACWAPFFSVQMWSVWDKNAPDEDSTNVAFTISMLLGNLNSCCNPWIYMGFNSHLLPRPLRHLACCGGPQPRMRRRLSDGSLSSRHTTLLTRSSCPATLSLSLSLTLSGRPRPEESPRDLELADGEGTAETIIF
The experiment in a line: Vasopressin V1b receptor binding test. The settings on record: membranes of CHO-K1 cells with human V1b receptor, displacement of 1.5 nM 3H-AVP; for compounds with more than one stereogenic center the diastereomer with greater affinity. An outline of the steps:
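Affinity constants (Ki) came from nonlinear regression of triplicate scintillation counts after filtration separated bound from free radioligand. Compounds competed at human V1b membranes for 60 min, room temperature, in pH 7.4 tris/MgCl2/BSA buffer with 2% DMSO; 1 μM AVP defined nonspecific binding.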

For 22 molecules, Ki results are on record in US8044079B2, “Substituted oxindole derivatives, medicaments containing said derivatives and use thereof” (Abbott GmbH & Co. KG, priority 2005, dated 2011).

As usually defined, the Ki is the equilibrium dissociation constant of an inhibitor or competing ligand from its target. A high value points to a looser hold on the target. For the molecule `CCN(C)Cc1ccc(C2(N3C[C@H](O)C[C@H]3c3ncco3)C(=O)N(S(=O)(=O)c3ccc(OC)cc3)c3ccc(Cl)cc32)c(OC)c1` (stereo partly drawn) [Example 170, 5-Chloro-3-{4-[(ethylmethylamino)methyl]-2-methoxyphenyl}-3-((2S,4R)-4-hydroxy-2-oxazol-2-yl-pyrrolidin-1-yl)-1-(4-methoxybenzenesulfonyl)-1,3-dihydroindol-2-one], the Ki was less than 10 nM.
For `COc1ccc(CN2CCN(C)CC2)cc1C1(N2CCC[C@H]2c2ncco2)C(=O)N(S(=O)(=O)c2cccs2)c2ccc(Cl)cc21` (stereo partly drawn) [Example 171, 5-Chloro-3-[2-methoxy-5-(4-methylpiperazin-1-ylmethyl)phenyl]-3-((S)-2-oxazol-2-yl-pyrrolidin-1-yl)-1-(thiophene-2-sulfonyl)-1,3-dihydroindol-2-one] the value was 10 to 100 nM; for `COc1ccc(S(=O)(=O)N2C(=O)C(c3ccc(CN(C)C)cc3OC)(N3C[C@H](O)C[C@H]3c3ncco3)c3cc(C#N)ccc32)cc1` (stereo partly drawn) [Example 172, 5-Cyano-3-(4-dimethylaminomethyl-2-methoxyphenyl)-3-((2S,4R)-4-hydroxy-2-oxazol-2-yl-pyrrolidin-1-yl)-1-(4-methoxybenzenesulfonyl)-1,3-dihydroindol-2-one], 10 to 100 nM.
The figure for `COc1ccc(S(=O)(=O)N2C(=O)C(c3cc(CN4CCN(C)CC4)ccc3F)(N3CCC[C@H]3c3ncco3)c3cc(Cl)ccc32)cc1` (stereo partly drawn) [Example 173, 5-Chloro-3-[2-fluoro-5-(4-methylpiperazin-1-ylmethyl)phenyl]-1-(4-methoxybenzenesulfonyl)-3-((S)-2-oxazol-2-yl-pyrrolidin-1-yl)-1,3-dihydroindol-2-one] is 10 to 100 nM; for `COc1ccc(S(=O)(=O)N2C(=O)C(c3cc(CN(C)C)ccc3F)(N3CCC[C@H]3c3ncco3)c3cc(Cl)ccc32)cc1` (stereo partly drawn) [Example 174, 5-Chloro-3-(5-dimethylaminomethyl-2-fluorophenyl)-1-(4-methoxybenzenesulfonyl)-3-((S)-2-oxazol-2-yl-pyrrolidin-1-yl)-1,3-dihydroindol-2-one] it is 10 to 100 nM.
For `COc1ccc(S(=O)(=O)N2C(=O)C(c3cc(CNC(C)C)ccc3F)(N3CCC[C@H]3c3ncco3)c3cc(Cl)ccc32)cc1` (stereo partly drawn) [Example 175, 5-Chloro-3-[2-fluoro-5-(isopropylaminomethyl)phenyl]-1-(4-methoxybenzenesulfonyl)-3-((S)-2-oxazol-2-yl-pyrrolidin-1-yl)-1,3-dihydroindol-2-one] the value was 10 to 100 nM.
Take `CCNCc1ccc(F)c(C2(N3CCC[C@H]3c3ncco3)C(=O)N(S(=O)(=O)c3ccc(OC)cc3)c3ccc(Cl)cc32)c1` (stereo partly drawn) [Example 176, 5-Chloro-3-(5-ethylaminomethyl-2-fluorophenyl)-1-(4-methoxybenzenesulfonyl)-3-((S)-2-oxazol-2-yl-pyrrolidin-1-yl)-1,3-dihydroindol-2-one]: the Ki was 10 to 100 nM.
With `CCCNCc1ccc(OC)c(C2(N3C[C@H](O)C[C@H]3c3ncco3)C(=O)N(S(=O)(=O)c3ccc(OC)cc3)c3ccc(C#N)cc32)c1` (stereo partly drawn) [Example 177, 5-Cyano-3-((2S,4R)-4-hydroxy-2-oxazol-2-yl-pyrrolidin-1-yl)-1-(4-methoxybenzenesulfonyl)-3-(2-methoxy-5-propylaminomethylphenyl)-1,3-dihydroindol-2-one], the Ki was less than 10 nM.
For `COc1ccc(S(=O)(=O)N2C(=O)C(c3ccc(CN4CCN(C)CC4)cc3OC)(N3C[C@H](O)C[C@H]3c3ncco3)c3cc(C#N)ccc32)cc1` (stereo partly drawn) [Example 178, 5-Cyano-3-((2S,4R)-4-hydroxy-2-oxazol-2-yl-pyrrolidin-1-yl)-1-(4-methoxybenzenesulfonyl)-3-[2-methoxy-4-(4-methylpiperazin-1-ylmethyl)phenyl]-1,3-dihydroindol-2-one] the value was less than 10 nM.
On to `CCN1CCN(Cc2ccc(C3(N4C[C@H](O)C[C@H]4c4ncco4)C(=O)N(S(=O)(=O)c4ccc(OC)cc4)c4ccc(C#N)cc43)c(OC)c2)CC1` (stereo partly drawn) [Example 179, 5-Cyano-3-[4-(4-ethylpiperazin-1-ylmethyl)-2-methoxyphenyl]-3-((2S,4R)-4-hydroxy-2-oxazol-2-yl-pyrrolidin-1-yl)-1-(4-methoxybenzenesulfonyl)-1,3-dihydroindol-2-one], for which the inhibition constant Ki is less than 10 nM.
The figure for `COc1cc(CN2CCN(C)CC2)ccc1C1(N2C[C@H](O)C[C@H]2c2ncco2)C(=O)N(S(=O)(=O)c2ccc(C#N)cc2)c2ccc(Cl)cc21` (stereo partly drawn) [Example 180, 5-Chloro-3-((2S,4R)-4-hydroxy-2-oxazol-2-yl-pyrrolidin-1-yl)-3-[2-methoxy-4-(4-methylpiperazin-1-ylmethyl)phenyl]-1-(4-cyanobenzenesulfonyl)-1,3-dihydroindol-2-one] is less than 10 nM; for `CCN1CCN(Cc2ccc(C3(N4C[C@H](O)C[C@H]4c4ncco4)C(=O)N(S(=O)(=O)c4ccc(C#N)cc4)c4ccc(Cl)cc43)c(OC)c2)CC1` (stereo partly drawn) [Example 181, 5-Chloro-3-[4-(4-ethylpiperazin-1-ylmethyl)-2-methoxyphenyl]-3-((2S,4R)-4-hydroxy-2-oxazol-2-yl-pyrrolidin-1-yl)-1-(4-cyanobenzenesulfonyl)-1,3-dihydroindol-2-one] it is less than 10 nM; for `COc1cc(CN(C)C)ccc1C1(N2C[C@H](O)C[C@H]2c2ncco2)C(=O)N(S(=O)(=O)c2ccc(C#N)cc2)c2ccc(Cl)cc21` (stereo partly drawn) [Example 182, 5-Chloro-3-(4-dimethylaminomethyl-2-methoxyphenyl)-3-((2S,4R)-4-hydroxy-2-oxazol-2-yl-pyrrolidin-1-yl)-1-(4-cyanobenzenesulfonyl)-1,3-dihydroindol-2-one] it is 10 to 100 nM.
For `COc1cc(CN2CCCC2)ccc1C1(N2C[C@H](O)C[C@H]2c2ncco2)C(=O)N(S(=O)(=O)c2ccc(C#N)cc2)c2ccc(Cl)cc21` (stereo partly drawn) [Example 183, 5-Chloro-3-((2S,4R)-4-hydroxy-2-oxazol-2-yl-pyrrolidin-1-yl)-3-(2-methoxy-4-(pyrrolidin-1-ylmethyl)phenyl)-1-(4-cyanobenzenesulfonyl)-1,3-dihydroindol-2-one] the value was 10 to 100 nM; for `COc1ccc(S(=O)(=O)N2C(=O)C(c3cc(CN4CCN(C)CC4)cc4c3OCO4)(N3CCC[C@H]3c3ncco3)c3cc(Cl)ccc32)cc1` (stereo partly drawn) [Example 184, 5-Chloro-1-(4-methoxybenzenesulfonyl)-3-[6-(4-methylpiperazin-1-ylmethyl)benzo[1,3]dioxol-4-yl]-3-((S)-2-oxazol-2-yl-pyrrolidin-1-yl)-1,3-dihydroindol-2-one], less than 10 nM.
The figure for `CNCc1cc2c(c(C3(N4CCC[C@H]4c4ncco4)C(=O)N(S(=O)(=O)c4ccc(OC)cc4)c4ccc(Cl)cc43)c1)OCO2` (stereo partly drawn) [Example 185, 5-Chloro-1-(4-methoxybenzenesulfonyl)-3-(6-methylaminomethylbenzo[1,3]dioxol-4-yl)-3-((S)-2-oxazol-2-yl-pyrrolidin-1-yl)-1,3-dihydroindol-2-one] is 10 to 100 nM; for `COc1ccc(S(=O)(=O)N2C(=O)C(c3cc(CN(C)C)cc4c3OCO4)(N3CCC[C@H]3c3ncco3)c3cc(Cl)ccc32)cc1` (stereo partly drawn) [Example 186, 5-Chloro-3-(6-dimethylaminomethylbenzo[1,3]dioxol-4-yl)-1-(4-methoxybenzenesulfonyl)-3-((S)-2-oxazol-2-yl-pyrrolidin-1-yl)-1,3-dihydroindol-2-one] it is 10 to 100 nM.
Regarding `COc1ccc(S(=O)(=O)N2C(=O)C(c3cc(CNC(C)C)cc4c3OCO4)(N3CCC[C@H]3c3ncco3)c3cc(Cl)ccc32)cc1` (stereo partly drawn) [Example 187, 5-Chloro-3-[6-(isopropylaminomethyl)benzo[1,3]dioxol-4-yl]-1-(4-methoxybenzenesulfonyl)-3-((S)-2-oxazol-2-yl-pyrrolidin-1-yl)-1,3-dihydroindol-2-one], the inhibition constant (Ki) was less than 10 nM.
The figure for `CCNCc1cc2c(c(C3(N4CCC[C@H]4c4ncco4)C(=O)N(S(=O)(=O)c4ccc(OC)cc4)c4ccc(Cl)cc43)c1)OCO2` (stereo partly drawn) [Example 188, 5-Chloro-3-(6-ethylaminomethylbenzo[1,3]dioxol-4-yl)-1-(4-methoxybenzenesulfonyl)-3-((S)-2-oxazol-2-yl-pyrrolidin-1-yl)-1,3-dihydroindol-2-one] is less than 10 nM; for `CCNCc1ccc(C2(N3C[C@H](O)C[C@H]3c3ncco3)C(=O)N(S(=O)(=O)c3ccc(C#N)cc3)c3ccc(Cl)cc32)c(OC)c1` (stereo partly drawn) [Example 189, 5-Chloro-3-(4-ethylaminomethyl-2-methoxyphenyl)-3-((2S,4R)-4-hydroxy-2-oxazol-2-yl-pyrrolidin-1-yl)-1-(4-cyanobenzenesulfonyl)-1,3-dihydroindol-2 one] it is 10 to 100 nM; for `CNCc1ccc(C2(N3C[C@H](O)C[C@H]3c3ncco3)C(=O)N(S(=O)(=O)c3ccc(C#N)cc3)c3ccc(Cl)cc32)c(OC)c1` (stereo partly drawn) [Example 190, 5-Chloro-3-((2S,4R)-4-hydroxy-2-oxazol-2-yl-pyrrolidin-1-yl)-3-(2-methoxy-4-methylaminomethylphenyl)-1-(4-cyanobenzenesulfonyl)-1,3-dihydroindol-2 one] it is 10 to 100 nM.
The figure for `COc1ccc(S(=O)(=O)N2C(=O)C(c3cc(CN4CCC(O)CC4)ccc3OC)(N3CCC[C@H]3c3ncco3)c3cc(C#N)ccc32)cc1` (stereo partly drawn) [Example 191, 5-Cyano-3-[5-(4-hydroxypiperidin-1-ylmethyl)-2-methoxyphenyl]-1-(4-methoxybenzenesulfonyl)-3-((S)-2-oxazol-2-yl-pyrrolidin-1-yl)-1,3-dihydroindol-2-one] is less than 10 nM.
